Measurements as given in US20020137929A1, “1 - (3-heterocyclylphenyl) isothiourea, -isourea, -guanidine and -amidine herbicidal agents” (Intellectual Property Department, BASF Aktiengesellschaft, priority 1998, published 2002).

Legend:
CASOB (Sicklepod) = assay: Postemergence herbicidal evaluation; type: in vivo, Cassia obtusifolia; details: postemergence
Summary of the method: (§1)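 Two-week-old seedlings sprayed with compound in 50/50 acetone/water plus 0.5% TWEEN 20, at about 0.0156 to 0.500 kg/ha, nozzle at 40 psi. Kept in greenhouse; rated visually 4-5 weeks after treatment on a 0-9 scale versus control, repeat tests averaged.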

[1] = tested on: CHEAL (Lambsquarters, Common); assay: Postemergence herbicidal evaluation; type: in vivo, Chenopodium album; details: postemergence
Summary of the method: as §1

ECHCG (Barnyardgrass) = assay: Postemergence herbicidal evaluation; type: in vivo, Echinochloa crus-galli; details: postemergence
Summary of the method: as §1

ORYSAT (Rice, Tebonnet) [2] = assay: Postemergence herbicidal evaluation; type: in vivo, Oryza sativa, (L.) Tebonnet; details: postemergence
Summary of the method: as §1

GALAP (Galium) = assay: Preemergence herbicidal evaluation; type: in vivo, Galium aparine; details: preemergence, rated 4-5 weeks after treatment, 0-9 scale
Summary of the method: (§2)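 Scores (0–9) reflect visual comparison with control plants for stand, vigor, malformation, size and chlorosis. Compound was applied to the soil after sowing, before emergence, as an aqueous acetone spray (about 0.0156–0.500 kg/ha), and cups were kept in a greenhouse for 4–5 weeks.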

SETVI (Foxtail, Green) = assay: Preemergence herbicidal evaluation; type: in vivo, Setaria viridis; details: preemergence, rated 4-5 weeks after treatment, 0-9 scale
Summary of the method: as §2

[3] = tested on: GLXMAW (Soybean, Williams); assay: Preemergence herbicidal evaluation; type: in vivo, Glycine max, (L.) Merr. cv Williams; details: preemergence, rated 4-5 weeks after treatment, 0-9 scale
Summary of the method: as §2

ORYSAT (Rice, Tebonnet) [4] = assay: Preemergence herbicidal evaluation; type: in vivo, Oryza sativa, (L.) Tebonnet; details: preemergence, rated 4-5 weeks after treatment, 0-9 scale
Summary of the method: as §2

[5] = tested on: TRZAWR (Wheat, Winter, cv Riband); assay: Preemergence herbicidal evaluation; type: in vivo, Triticum aestivum; details: preemergence, rated 4-5 weeks after treatment, 0-9 scale
Summary of the method: as §2

ZEAMX (Corn, Field) = assay: Preemergence herbicidal evaluation; type: in vivo, Zea mays; details: preemergence, rated 4-5 weeks after treatment, 0-9 scale
Summary of the method: as §2

CYPIR (Rice Flatsedge) = assay: Preemergence weed control under flooded paddy conditions; type: in vivo, Cyperus iria; details: rated 3-4 weeks after treatment
Summary of the method: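 Silt loam, seeds in top 0.5 cm; flood held 1.5-3 cm; test cpd as acetone/water 50/50 into flood water, ~0.0313-0.500 kg/ha a.i.; greenhouse 3-4 wk; visual 0-9 score vs control.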

MOOVA (Monochoria) = assay: as above; type: in vivo, Monochoria vaginalis; details: rated 3-4 weeks after treatment
Summary of the method: (§3)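 Flooded-pot preemergence screen with silt loam and seeds in the upper 0.5 cm. Dose about 0.0313 to 0.500 kg/ha, delivered into flood water; visual 0-9 score after 3 to 4 weeks.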

[6] = tested on: SAGPY (Arrowhead (Pygmaea)); assay: as above; type: in vivo, Sagittaria pygmaea; details: rated 3-4 weeks after treatment
Summary of the method: as §3

CYPSE (Flatsedge) = assay: Postemergence weed control under flooded paddy conditions; type: in vivo, Cyperus serotinus; details: postemergence weeds, rated 3 to 4 weeks after treatment
Summary of the method: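 Containers holding 3–5 cm weeds and rice at 1.5–2.5 leaves are flooded to 1.5–3 cm above soil. Compound in 50/50 v/v aqueous/acetone is then added directly to the water, about 0.0313–0.500 kg/ha. Plants are kept in the greenhouse and rated 0–9 visually at 3–4 weeks.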

CN1C(=O)C(CC(=O)OCCF)SC1=Nc1cc(-n2c(=O)cc(C(F)(F)F)n(C)c2=O)c(F)cc1Cl (stereo not shown) [Compound 93, 2-Fluoroethyl 2-{{2-chloro-5-[3,6-dihydro-3-methyl-2,6-dioxo-4-(trifluoromethyl)-1(2H)-pyrimidinyl]-4-fluorophenyl}imino}-3-methyl-4-oxo-5-thiazolidineacetate]
CASOB herbicidal rating (CASOB (Sicklepod); rate 0.0158 kg/ha): 0.0
CASOB herbicidal rating (CASOB (Sicklepod); rate 0.0315 kg/ha): 1.0
CASOB herbicidal rating (CASOB (Sicklepod); rate 0.0630 kg/ha): 2.0
CHEAL herbicidal rating ([1]; rate 0.0158 kg/ha): 4.0
CHEAL herbicidal rating ([1]; rate 0.0315 kg/ha): 4.0
CHEAL herbicidal rating ([1]; rate 0.0630 kg/ha): 9.0
ECHCG herbicidal rating (ECHCG (Barnyardgrass); rate 0.0158 kg/ha): 0.0
ECHCG herbicidal rating (ECHCG (Barnyardgrass); rate 0.0315 kg/ha): 2.0
ECHCG herbicidal rating (ECHCG (Barnyardgrass); rate 0.0630 kg/ha): 7.0
ORYSAT herbicidal rating (ORYSAT (Rice, Tebonnet) [2]; rate 0.0158 kg/ha): 1.0
ORYSAT herbicidal rating (ORYSAT (Rice, Tebonnet) [2]; rate 0.0315 kg/ha): 4.0
ORYSAT herbicidal rating (ORYSAT (Rice, Tebonnet) [2]; rate 0.0630 kg/ha): 6.0
GALAP rating (GALAP (Galium); 0.0313 kg/ha): 0.0
GALAP rating (GALAP (Galium); 0.0625 kg/ha): 0.0
GALAP rating (GALAP (Galium); 0.1250 kg/ha): 9.0
GALAP rating (GALAP (Galium); 0.2500 kg/ha): 9.0
SETVI rating (SETVI (Foxtail, Green); 0.0313 kg/ha): 0.0
SETVI rating (SETVI (Foxtail, Green); 0.0625 kg/ha): 0.0
SETVI rating (SETVI (Foxtail, Green); 0.1250 kg/ha): 0.0
SETVI rating (SETVI (Foxtail, Green); 0.2500 kg/ha): 9.0
GLXMAW rating ([3]; 0.0313 kg/ha): 0.0
GLXMAW rating ([3]; 0.0625 kg/ha): 0.0
GLXMAW rating ([3]; 0.1250 kg/ha): 4.0
GLXMAW rating ([3]; 0.2500 kg/ha): 8.0
ORYSAT rating (ORYSAT (Rice, Tebonnet) [4]; 0.0313 kg/ha): 0.0
ORYSAT rating (ORYSAT (Rice, Tebonnet) [4]; 0.0625 kg/ha): 0.0
ORYSAT rating (ORYSAT (Rice, Tebonnet) [4]; 0.1250 kg/ha): 2.0
ORYSAT rating (ORYSAT (Rice, Tebonnet) [4]; 0.2500 kg/ha): 4.0
TRZAWR rating ([5]; 0.0313 kg/ha): 0.0
TRZAWR rating ([5]; 0.0625 kg/ha): 0.0
TRZAWR rating ([5]; 0.1250 kg/ha): 2.0
TRZAWR rating ([5]; 0.2500 kg/ha): 7.0
ZEAMX rating (ZEAMX (Corn, Field); 0.0313 kg/ha): 0.0
ZEAMX rating (ZEAMX (Corn, Field); 0.0625 kg/ha): 0.0
ZEAMX rating (ZEAMX (Corn, Field); 0.1250 kg/ha): 1.0
ZEAMX rating (ZEAMX (Corn, Field); 0.2500 kg/ha): 6.0
CYPIR herbicidal effect rating (CYPIR (Rice Flatsedge); 0.0313 kg/ha): 0.0
CYPIR herbicidal effect rating (CYPIR (Rice Flatsedge); 0.0625 kg/ha): 0.0
CYPIR herbicidal effect rating (CYPIR (Rice Flatsedge); 0.1250 kg/ha): 0.0
CYPIR herbicidal effect rating (CYPIR (Rice Flatsedge); 0.2500 kg/ha): 0.0
MOOVA herbicidal effect rating (MOOVA (Monochoria); 0.0313 kg/ha): 9.0
MOOVA herbicidal effect rating (MOOVA (Monochoria); 0.0625 kg/ha): 9.0
MOOVA herbicidal effect rating (MOOVA (Monochoria); 0.1250 kg/ha): 9.0
MOOVA herbicidal effect rating (MOOVA (Monochoria); 0.2500 kg/ha): 9.0
SAGPY herbicidal effect rating ([6]; 0.0313 kg/ha): 0.0
SAGPY herbicidal effect rating ([6]; 0.0625 kg/ha): 0.0
SAGPY herbicidal effect rating ([6]; 0.1250 kg/ha): 3.0
SAGPY herbicidal effect rating ([6]; 0.2500 kg/ha): 9.0
Herbicidal rating CYPSE (CYPSE (Flatsedge); Rate 0.0313 kg/ha): 0.0
Herbicidal rating CYPSE (CYPSE (Flatsedge); Rate 0.0625 kg/ha): 0.0
Herbicidal rating CYPSE (CYPSE (Flatsedge); Rate 0.1250 kg/ha): 5.0
Herbicidal rating CYPSE (CYPSE (Flatsedge); Rate 0.2500 kg/ha): 9.0
